Test results as given in US20180049996A1, “THERAPEUTIC AGENT FOR CHRONIC RESPIRATORY DISEASE AND COMPOSITION FOR INHIBITING CARDIAC FIBROSIS” (NIPPON HYPOX LABORATORIES INCORPORATED, priority 2015, published 2018).

What was measured:
[1] = tested on: Myocardial Disorder Induced by Doxorubicin; experiment: Histopathologic examination of the hearts (transmission electron microscope), myocardial disorder induced by doxorubicin; format: in vivo, female SD rats; conditions: Test group 2: doxorubicin + HTHQ 50 mg/kg; day 7
Procedure: Doxorubicin is used to produce disease-model animals of cardiomyopathy. The doxorubicin and 2,3,5-trimethylhydroquinone-1-hexyl ether (HTHQ) as the hydroquinone derivative represented by the general formula (1) described above of the present invention were simultaneously administered to female SD rats of 4 week old after birth to examine the effect of the action. The test groups consisted of the control group to which sterile saline was administered; test group 1 to which doxorubicin (13 mg/kg body weight) alone was administered; test group 2 to which doxorubicin (13 mg/kg body weight) and HTHQ (50 mg/kg body weight) were administered in combination; and test group 3 to which doxorubicin (13 mg/kg body weight), HTHQ (50 mg/kg body weight) and recombinant human erythropoietin (400 IU/kg body weight) were administered in combination. […] The test group 3 is used to confirm the presence or absence of the inhibitory effect brought about by combining HTHQ and rHuEPO on myocardial disorder.
Doxorubicin was orally administered in a single dose to the rats in test groups 1 to 3. 2,3,5-trimethylhydroquinone-1-hexyl ether (HTHQ) was orally administered to the rats in test groups 2 and 3 twice in total: 3 days before the administration of doxorubicin and on the day of the administration. […]

[2] = tested on: Pulmonary Fibrosis Induced by Bleomycin; experiment: Body weight and relative weight of lungs, pulmonary fibrosis induced by bleomycin; format: in vivo, male SD rats; conditions: test groups 2 and 3: bleomycin 7.5 mg/kg + HTHQ 50 or 200 mg/kg/day oral; day 20; compared to bleomycin-single group, p<0.05
Procedure: Bleomycin is used to produce disease-model animals of interstitial pneumonia. The bleomycin and 2,3,5-trimethylhydroquinone-1-hexyl ether (HTHQ) as the hydroquinone derivative represented by the general formula (1) described above of the present invention were simultaneously administered to male SD rats of 10 week old after birth to examine the effect of the action. The test groups consisted of the control group to which sterile saline was administered; test group 1 to which bleomycin (7.5 mg/kg body weight) alone was administered; test group 2 to which bleomycin (7.5 mg/kg body weight) and HTHQ (50 mg/kg body weight/day) were administered in combination; and test group 3 to which bleomycin (7.5 mg/kg body weight) and HTHQ (200 mg/kg body weight/day) were administered in combination.
In test groups 1 to 3, bleomycin was orally administered in a single dose. In test groups 2 and 3, 2,3,5-trimethylhydroquinone-1-hexyl ether (HTHQ) was daily orally administered for 10 or 20 days starting from 24 h after the administration of bleomycin. In test group 1, olive oil, which was used as a solvent of HTHQ, was daily orally administered at 10 mL/kg/day starting from 24 h after the administration of bleomycin. The number of animals in each group was 16. 8 animals of each group were sacrificed on days 10 and 20 after the administration of bleomycin and measurement of body weight, lung autopsy, histopathologic examination of lungs and bronchoalveolar lavage examination were conducted.
The body weight of the rats in the control group increased over time during the test period. […] The weight of the interstitial tissue of lungs tends to increase and the relative weight of lungs tends to rise when the tissue fibroses. […] Thus, it was expected that the degree of the progression of pulmonary fibrosis of the rats in test groups 2 and 3, to which HTHQ was administered, was less than the rats in test group 1.

IL-6 = IL-6 level in BAL fluid (ELISA), COPD model; format: in vivo, C57BL/6N mice; conditions: HTHQ 10 and 20 mg/kg/day oral; tobacco smoke 10 days + LPS; compared to COPD model group
Procedure: 6 week old male SPF C57BL/6N mice, 20 to 25 g of body weight, were purchased from CORETEC INC. (South Korea).
The tests were conducted as follows. The mice in the COPD (chronic obstructive pulmonary disease) model group of the test groups were exposed to tobacco smoke for 1 hour per day (8 cigarettes/day) for 10 days and LPS (5 μg/50 μL/mouse) was intranasally administered to the mice on day 8 after the start of the tests. […]
The mice in the test groups were euthanized 72 hours after the LPS administration and the mice in the normal control group were euthanized on day 11 after the start of the tests by intraperitoneal injection of pentobarbital (Hanrimu pharmaceutical, South Korea) at 50 mg/kg and then the bronchi were excised. […] After preparing slide samples from 100 μL of BAL cell fluid using Cytospin (4° C., 1000 rpm×5 min), the cell numbers of inflammatory cells (neutrophil, macrophages) present in the BAL fluid were counted using a Diff-Quik stain kit.
The supernatant of the BAL fluid stored was taken out of the super-cryostat, and TNF-α and IL-6 levels were measured as the levels of pro-inflammatory cytokines in the supernatant. A quantitative ELISA kit (a product from Invitrogen) and an ELISA analyzer (a product from Molecular Devices, LLC.) were used for the measurement and the measurement wavelength was 450 nm.

For `CCCCCCOc1cc(C)c(O)c(C)c1C` [HTHQ, 2,3,5-trimethylhydroquinone-1-hexyl ether], the “findings in myocardial cells (transmission electron microscope)” value [1] was “loss of striations was alleviated”, the “relative weight of lungs” value [2] was “significantly low” and the “IL-6 level in BAL fluid” value (IL-6) was “significantly reduced”.
